Marks after values point to notes of the source that are not given here.
What was measured:
Test in all cases: Kinase selectivity, % remaining activity
Assay type in all cases: biochemical
Details in all cases: 10 μM compound, 10 μM ATP, duplicate
[1] = target: ABL2/ARG (Homo sapiens, UniProt P42684)
Description: (§1) A two-tier strategy to determine the selectivity of compound A was applied: first, the compound was tested at a single concentration (in duplicate) to determine the %-remaining activity of the target kinase. Subsequently, the IC50 of compound A and comparative compounds for casein kinase 1 delta were determined.
(§2) Compounds were tested in single dose duplicate mode at a concentration of 10 μM (in DMSO) and reactions were carried out at 10 μM ATP, Table 3 reports the % of remaining activity (relative to DMSO).

[2] = target: T1, ALK5/TGFBR1 (Homo sapiens, UniProt P36897)
T1 sequence (P36897 34-503): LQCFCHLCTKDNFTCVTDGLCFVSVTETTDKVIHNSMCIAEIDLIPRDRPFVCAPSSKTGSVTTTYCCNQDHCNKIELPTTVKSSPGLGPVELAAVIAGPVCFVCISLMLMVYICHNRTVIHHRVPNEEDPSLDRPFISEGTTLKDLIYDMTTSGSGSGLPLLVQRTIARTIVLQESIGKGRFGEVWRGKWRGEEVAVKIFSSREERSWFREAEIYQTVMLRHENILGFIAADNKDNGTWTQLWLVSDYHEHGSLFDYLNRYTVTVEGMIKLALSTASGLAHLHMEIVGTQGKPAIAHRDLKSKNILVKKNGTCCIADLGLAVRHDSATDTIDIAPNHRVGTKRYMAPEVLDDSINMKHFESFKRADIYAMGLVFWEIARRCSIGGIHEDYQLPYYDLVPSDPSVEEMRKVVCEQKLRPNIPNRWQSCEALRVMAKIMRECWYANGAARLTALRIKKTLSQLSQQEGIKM
Description: as §1, §2

[3] = target: CK1e (Homo sapiens, UniProt P49674)
Description: as §1, §2

[4] = target: CK1g1 (Homo sapiens, UniProt Q9HCP0)
Description: as §1, §2

[5] = target: CK1g2 (Homo sapiens, UniProt P78368)
Description: as §1, §2

[6] = target: CK1g3 (Homo sapiens, UniProt Q9Y6M4)
Chain of CK1g3 (Q9Y6M4 whole entry): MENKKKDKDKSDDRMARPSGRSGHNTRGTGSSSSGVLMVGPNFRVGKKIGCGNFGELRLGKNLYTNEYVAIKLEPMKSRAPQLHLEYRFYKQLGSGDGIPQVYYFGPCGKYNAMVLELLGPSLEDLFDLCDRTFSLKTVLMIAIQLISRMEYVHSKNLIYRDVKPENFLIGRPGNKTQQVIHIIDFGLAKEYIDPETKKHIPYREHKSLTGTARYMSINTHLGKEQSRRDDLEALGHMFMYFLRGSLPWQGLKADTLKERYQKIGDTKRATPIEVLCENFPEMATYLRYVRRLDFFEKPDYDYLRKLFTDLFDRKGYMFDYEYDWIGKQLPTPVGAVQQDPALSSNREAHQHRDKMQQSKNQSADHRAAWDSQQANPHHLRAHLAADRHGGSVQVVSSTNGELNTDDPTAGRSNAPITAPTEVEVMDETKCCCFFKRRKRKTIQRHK
Description: as §1, §2

[7] = target: CLK2 (Homo sapiens, UniProt P49760)
Description: as §1, §2

[8] = target: DAPK1 (Homo sapiens, UniProt P53355)
Description: as §1, §2

[9] = target: EPHA2 (Homo sapiens, UniProt P29317)
Description: as §1, §2

[10] = target: FGFR1 (Homo sapiens, UniProt P11362)
Chain of FGFR1 (P11362 22-822): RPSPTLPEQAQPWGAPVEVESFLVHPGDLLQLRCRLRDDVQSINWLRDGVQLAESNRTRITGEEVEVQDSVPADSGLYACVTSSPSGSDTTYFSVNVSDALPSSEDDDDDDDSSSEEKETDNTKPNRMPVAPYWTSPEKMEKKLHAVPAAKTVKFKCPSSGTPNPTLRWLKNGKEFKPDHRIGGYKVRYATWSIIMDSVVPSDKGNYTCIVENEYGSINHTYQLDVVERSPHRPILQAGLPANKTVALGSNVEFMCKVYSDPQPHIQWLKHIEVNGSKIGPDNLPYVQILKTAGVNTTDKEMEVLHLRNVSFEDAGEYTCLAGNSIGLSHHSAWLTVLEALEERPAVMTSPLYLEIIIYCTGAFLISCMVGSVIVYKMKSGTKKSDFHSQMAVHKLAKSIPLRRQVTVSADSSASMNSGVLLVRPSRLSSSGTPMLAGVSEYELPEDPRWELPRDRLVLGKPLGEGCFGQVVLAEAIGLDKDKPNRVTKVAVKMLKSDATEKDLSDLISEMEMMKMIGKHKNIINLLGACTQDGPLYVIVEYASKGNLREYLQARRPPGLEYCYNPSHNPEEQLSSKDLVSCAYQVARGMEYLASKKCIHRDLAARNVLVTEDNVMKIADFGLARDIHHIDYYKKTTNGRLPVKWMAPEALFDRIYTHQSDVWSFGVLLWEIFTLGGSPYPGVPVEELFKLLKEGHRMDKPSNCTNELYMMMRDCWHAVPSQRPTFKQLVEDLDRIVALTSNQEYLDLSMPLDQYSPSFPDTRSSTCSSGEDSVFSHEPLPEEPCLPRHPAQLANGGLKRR
Description: as §1, §2

[11] = target: GSK3B (Homo sapiens, UniProt P49841)
Description: as §1, §2

[12] = target: JNK2 (Homo sapiens, UniProt P45984)
Description: as §1, §2

[13] = target: KDR/VEGFR2 (Homo sapiens, UniProt P35968)
Chain of KDR/VEGFR2 (P35968 20-1356): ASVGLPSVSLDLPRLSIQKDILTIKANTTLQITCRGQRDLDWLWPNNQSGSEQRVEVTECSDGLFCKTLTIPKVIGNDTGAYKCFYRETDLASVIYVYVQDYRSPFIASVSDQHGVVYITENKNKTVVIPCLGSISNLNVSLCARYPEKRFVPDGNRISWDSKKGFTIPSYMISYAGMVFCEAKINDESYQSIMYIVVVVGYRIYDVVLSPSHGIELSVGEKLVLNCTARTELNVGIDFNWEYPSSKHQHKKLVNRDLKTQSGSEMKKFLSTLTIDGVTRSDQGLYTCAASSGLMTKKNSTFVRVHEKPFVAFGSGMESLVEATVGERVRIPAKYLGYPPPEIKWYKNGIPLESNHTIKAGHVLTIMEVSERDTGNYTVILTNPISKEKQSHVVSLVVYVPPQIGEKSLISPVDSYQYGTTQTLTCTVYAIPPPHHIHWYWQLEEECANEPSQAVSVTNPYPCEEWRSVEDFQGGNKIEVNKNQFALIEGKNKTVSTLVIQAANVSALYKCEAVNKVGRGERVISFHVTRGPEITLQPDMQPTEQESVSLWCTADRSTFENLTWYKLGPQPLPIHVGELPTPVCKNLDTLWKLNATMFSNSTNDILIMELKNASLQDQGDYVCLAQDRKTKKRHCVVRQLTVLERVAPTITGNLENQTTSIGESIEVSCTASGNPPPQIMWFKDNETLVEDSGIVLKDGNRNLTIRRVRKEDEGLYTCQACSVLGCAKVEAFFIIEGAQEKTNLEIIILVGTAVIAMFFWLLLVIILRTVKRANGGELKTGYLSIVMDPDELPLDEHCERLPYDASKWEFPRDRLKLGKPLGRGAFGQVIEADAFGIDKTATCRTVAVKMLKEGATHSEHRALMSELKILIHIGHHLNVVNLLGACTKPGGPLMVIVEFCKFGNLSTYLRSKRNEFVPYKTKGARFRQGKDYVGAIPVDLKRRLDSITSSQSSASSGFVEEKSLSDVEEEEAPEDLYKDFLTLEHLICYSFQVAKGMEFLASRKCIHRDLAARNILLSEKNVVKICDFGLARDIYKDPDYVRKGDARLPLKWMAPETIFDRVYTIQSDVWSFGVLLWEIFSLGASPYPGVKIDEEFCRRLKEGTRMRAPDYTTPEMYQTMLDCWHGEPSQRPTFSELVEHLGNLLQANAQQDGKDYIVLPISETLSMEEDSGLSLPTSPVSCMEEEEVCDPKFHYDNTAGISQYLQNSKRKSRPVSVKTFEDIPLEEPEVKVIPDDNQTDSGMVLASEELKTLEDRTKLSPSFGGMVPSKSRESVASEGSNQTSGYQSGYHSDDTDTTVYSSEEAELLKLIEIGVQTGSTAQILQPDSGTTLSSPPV
Description: as §1, §2

[14] = target: LCK (Homo sapiens, UniProt P06239)
Description: as §1, §2

[15] = target: P38a/MAPK14 (Homo sapiens, UniProt Q16539)
Description: as §1, §2

[16] = target: T2, PDK1/PDPK1 (Homo sapiens, UniProt O15530)
T2 sequence (O15530 1-556): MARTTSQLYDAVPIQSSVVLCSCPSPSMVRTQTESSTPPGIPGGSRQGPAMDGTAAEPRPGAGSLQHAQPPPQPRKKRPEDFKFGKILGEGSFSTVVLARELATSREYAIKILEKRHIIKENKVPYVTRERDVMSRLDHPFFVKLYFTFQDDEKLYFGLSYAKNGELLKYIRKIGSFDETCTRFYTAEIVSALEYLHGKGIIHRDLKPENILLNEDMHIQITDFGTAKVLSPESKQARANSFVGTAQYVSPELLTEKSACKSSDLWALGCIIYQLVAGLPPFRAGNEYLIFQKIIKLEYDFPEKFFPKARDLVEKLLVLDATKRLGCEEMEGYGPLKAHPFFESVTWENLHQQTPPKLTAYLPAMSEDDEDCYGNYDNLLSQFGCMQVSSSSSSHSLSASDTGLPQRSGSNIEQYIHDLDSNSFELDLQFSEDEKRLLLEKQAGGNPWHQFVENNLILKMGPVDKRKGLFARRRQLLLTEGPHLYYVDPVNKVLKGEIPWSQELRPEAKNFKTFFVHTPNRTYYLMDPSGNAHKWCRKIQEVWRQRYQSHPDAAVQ
Description: as §1, §2

[17] = target: PIM3 (Homo sapiens, UniProt Q86V86)
Description: as §1, §2

[18] = target: PKA (Homo sapiens, UniProt P17612)
Description: as §1, §2

[19] = target: PKCb2 (Homo sapiens, UniProt P05771)
Description: as §1, §2

[20] = target: RIPK2 (Homo sapiens, UniProt O43353)
Chain of RIPK2 (O43353 whole entry): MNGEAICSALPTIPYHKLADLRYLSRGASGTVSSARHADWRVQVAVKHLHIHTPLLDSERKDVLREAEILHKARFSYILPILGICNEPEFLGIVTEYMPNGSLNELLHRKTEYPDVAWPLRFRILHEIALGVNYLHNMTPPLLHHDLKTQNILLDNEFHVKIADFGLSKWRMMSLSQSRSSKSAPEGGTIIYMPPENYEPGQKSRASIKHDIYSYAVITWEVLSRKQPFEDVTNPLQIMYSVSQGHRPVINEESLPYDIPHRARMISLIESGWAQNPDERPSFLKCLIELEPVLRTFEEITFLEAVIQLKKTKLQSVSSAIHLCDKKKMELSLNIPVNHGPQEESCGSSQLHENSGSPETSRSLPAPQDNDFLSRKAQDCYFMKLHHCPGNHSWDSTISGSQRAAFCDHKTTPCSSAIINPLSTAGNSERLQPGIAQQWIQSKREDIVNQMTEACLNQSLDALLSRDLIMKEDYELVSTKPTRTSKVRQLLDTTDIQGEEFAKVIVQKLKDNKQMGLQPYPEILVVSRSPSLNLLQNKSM
Description: as §1, §2

[21] = target: TNIK (Homo sapiens, UniProt Q9UKE5)
Chain of TNIK (Q9UKE5 whole entry): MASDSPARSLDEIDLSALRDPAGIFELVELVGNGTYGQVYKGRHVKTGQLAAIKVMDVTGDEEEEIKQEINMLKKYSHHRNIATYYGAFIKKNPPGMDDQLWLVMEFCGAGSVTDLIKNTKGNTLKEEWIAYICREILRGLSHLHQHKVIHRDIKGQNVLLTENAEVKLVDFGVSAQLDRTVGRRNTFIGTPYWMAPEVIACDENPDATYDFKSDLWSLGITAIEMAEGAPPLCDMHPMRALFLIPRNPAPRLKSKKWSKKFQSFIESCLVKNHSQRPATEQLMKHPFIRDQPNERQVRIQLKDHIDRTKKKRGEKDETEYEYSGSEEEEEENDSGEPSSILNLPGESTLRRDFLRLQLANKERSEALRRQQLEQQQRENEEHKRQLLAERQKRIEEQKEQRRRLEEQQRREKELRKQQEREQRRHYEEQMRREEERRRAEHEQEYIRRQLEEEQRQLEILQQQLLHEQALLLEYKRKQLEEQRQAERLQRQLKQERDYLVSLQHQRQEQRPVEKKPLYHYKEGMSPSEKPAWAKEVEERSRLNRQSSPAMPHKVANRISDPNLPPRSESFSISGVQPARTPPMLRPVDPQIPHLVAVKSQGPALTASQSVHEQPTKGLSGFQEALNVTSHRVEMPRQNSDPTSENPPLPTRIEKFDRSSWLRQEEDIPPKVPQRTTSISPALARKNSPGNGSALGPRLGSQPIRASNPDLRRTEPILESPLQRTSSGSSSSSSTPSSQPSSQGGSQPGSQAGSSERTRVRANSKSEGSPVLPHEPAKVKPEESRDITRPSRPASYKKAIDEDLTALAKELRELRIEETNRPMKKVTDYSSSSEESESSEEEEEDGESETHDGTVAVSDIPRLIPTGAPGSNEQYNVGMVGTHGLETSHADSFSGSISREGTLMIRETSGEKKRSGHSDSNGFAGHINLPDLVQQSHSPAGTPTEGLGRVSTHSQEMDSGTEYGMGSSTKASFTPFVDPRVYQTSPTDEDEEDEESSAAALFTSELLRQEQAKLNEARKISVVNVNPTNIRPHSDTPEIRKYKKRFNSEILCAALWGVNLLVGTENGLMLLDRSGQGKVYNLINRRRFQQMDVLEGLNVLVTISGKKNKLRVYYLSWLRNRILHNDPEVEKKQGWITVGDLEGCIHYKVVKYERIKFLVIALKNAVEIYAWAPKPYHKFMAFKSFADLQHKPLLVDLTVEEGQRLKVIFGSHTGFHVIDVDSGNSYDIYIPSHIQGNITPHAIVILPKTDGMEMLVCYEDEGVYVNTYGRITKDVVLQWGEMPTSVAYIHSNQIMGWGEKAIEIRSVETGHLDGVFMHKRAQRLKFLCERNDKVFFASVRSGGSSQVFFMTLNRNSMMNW
Description: as §1, §2

[22] = target: YES/YES1 (Homo sapiens, UniProt P07947)
Description: as §1, §2

[23] = target: c-Src (Homo sapiens, UniProt P12931)
Chain of c-Src (P12931 whole entry, species assumed): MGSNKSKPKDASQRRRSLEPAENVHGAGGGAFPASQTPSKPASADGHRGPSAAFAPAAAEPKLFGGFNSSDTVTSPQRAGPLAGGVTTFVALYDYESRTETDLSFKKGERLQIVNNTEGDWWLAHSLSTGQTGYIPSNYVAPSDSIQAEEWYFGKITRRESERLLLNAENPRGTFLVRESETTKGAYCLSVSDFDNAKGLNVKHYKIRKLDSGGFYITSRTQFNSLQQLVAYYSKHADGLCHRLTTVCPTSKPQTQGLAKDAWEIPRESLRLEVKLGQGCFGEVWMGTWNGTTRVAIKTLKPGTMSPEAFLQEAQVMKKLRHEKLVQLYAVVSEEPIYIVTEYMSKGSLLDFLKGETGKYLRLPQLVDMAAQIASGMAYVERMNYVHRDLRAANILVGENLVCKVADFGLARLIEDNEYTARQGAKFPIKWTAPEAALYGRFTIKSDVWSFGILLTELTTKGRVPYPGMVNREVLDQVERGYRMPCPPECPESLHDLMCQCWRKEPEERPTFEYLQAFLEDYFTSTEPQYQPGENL
Description: as §1, §2

[24] = read-out: % of remaining activity (relative to DMSO)

CNc1c(C(N)=O)c2ccccn2c1C(=O)c1ccc(F)cc1 [Compound A, 2-methyl-amino-3-[(4-fluorophenyl)carbonyl]indolizine-1-carboxamide]
% of remaining activity (relative to DMSO) ([1]; listed as Cmp A): 70.98% | remaining activity at 10 µM [1, 24]: 71.3% | % of remaining activity (relative to DMSO) ([2]; listed as Cmp A): 109.38% | remaining activity at 10 µM [2, 24]: 110% | % of remaining activity (relative to DMSO) ([3]; listed as Cmp A): 3.67% | remaining activity at 10 µM [3, 24]: 2.81% | % of remaining activity (relative to DMSO) ([4]; listed as Cmp A): 119.87% | remaining activity at 10 µM [4, 24]: 107% | % of remaining activity (relative to DMSO) ([5]; listed as Cmp A): 99.83% | remaining activity at 10 µM [5, 24]: 95.5% | % of remaining activity (relative to DMSO) ([6]; listed as Cmp A): 97.24% | remaining activity at 10 µM [6, 24]: 98.5% | % of remaining activity (relative to DMSO) ([7]; listed as Cmp A): 105.40% | remaining activity at 10 µM [7, 24]: 100% | % of remaining activity (relative to DMSO) ([8]; listed as Cmp A): 124.50% | remaining activity at 10 µM [8, 24]: 134% | % of remaining activity (relative to DMSO) ([9]; listed as Cmp A): 55.67% | remaining activity at 10 µM [9, 24]: 59% | % of remaining activity (relative to DMSO) ([10]; listed as Cmp A): 95.15% | remaining activity at 10 µM [10, 24]: 95.7% | % of remaining activity (relative to DMSO) ([11]; listed as Cmp A): 122.02% | remaining activity at 10 µM [11, 24]: 124% | % of remaining activity (relative to DMSO) ([12]; listed as Cmp A): 97.26% | remaining activity at 10 µM [12, 24]: 99.9% | % of remaining activity (relative to DMSO) ([13]; listed as Cmp A): 109.28% | remaining activity at 10 µM [13, 24]: 111% | % of remaining activity (relative to DMSO) ([14]; listed as Cmp A): 39.87% | remaining activity at 10 µM [14, 24]: 39.4% | % of remaining activity (relative to DMSO) ([15]; listed as Cmp A): 34.47* % | remaining activity at 10 µM [15, 24]: 35.3% | % of remaining activity (relative to DMSO) ([16]; listed as Cmp A): 105.50% | remaining activity at 10 µM [16, 24]: 107% | % of remaining activity (relative to DMSO) ([17]; listed as Cmp A): 119.96% | remaining activity at 10 µM [17, 24]: 125% | % of remaining activity (relative to DMSO) ([18]; listed as Cmp A): 82.86% | remaining activity at 10 µM [18, 24]: 84.3% | % of remaining activity (relative to DMSO) ([19]; listed as Cmp A): 111.60% | remaining activity at 10 µM [19, 24]: 113% | % of remaining activity (relative to DMSO) ([20]; listed as Cmp A): 91.39% | remaining activity at 10 µM [20, 24]: 93.5% | % of remaining activity (relative to DMSO) ([21]; listed as Cmp A): 94.12% | remaining activity at 10 µM [21, 24]: 94.4% | % of remaining activity (relative to DMSO) ([22]; listed as Cmp A): 60.09% | remaining activity at 10 µM [22, 24]: 58.4% | % of remaining activity (relative to DMSO) ([23]; listed as Cmp A): 60.86% | remaining activity at 10 µM [23, 24]: 61%
